Experimental data: US20060069132A1, “Azolecarboxamide herbicides” (priority 2004, published 2006)

How the values were obtained:
large crabgrass [1] = test: Test B pre-/postemergence herbicide test; format: in vivo, Digitaria sanguinalis
Outline: (§1)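 Flooded paddy rice and barnyardgrass were treated at the 2-leaf stage; upland plantings received compound either on sown seed or on 1- to 4-leaf seedlings. All were kept 13–15 days in a greenhouse and scored visually, 0–100, relative to untreated plants.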

velvetleaf [2] = test: Test A pre-/postemergence herbicide test; format: in vivo, Abutilon theophrasti
Outline: (§2)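 Visual injury rating on a 0–100 scale (0 no effect, 100 complete control) versus untreated controls, about ten days after treatment in greenhouse. Pre: directed soil spray onto seeded sandy loam. Post: spray to runoff on plants 2–10 cm tall at one- to two-leaf stage.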

corn = test: Test B pre-/postemergence herbicide test; format: in vivo, Zea mays
Outline: as §1

barnyardgrass [3] = test: Test A pre-/postemergence herbicide test; format: in vivo, Echinochloa crus-galli
Outline: as §2

morningglory [4] = test: Test B pre-/postemergence herbicide test; format: in vivo, Ipomoea coccinea
Outline: (§3)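 Visual rating, 0 (no effect) to 100 (complete control), versus untreated controls after 13–15 d in greenhouse. Pre- and postemergence applications (postemergence plants 2–18 cm, 1–4 leaves); flooded paddy arm at 2-leaf stage. Compounds in non-phytotoxic solvent plus surfactant.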

velvetleaf [5] = test: Test B pre-/postemergence herbicide test; format: in vivo, Abutilon theophrasti
Outline: as §1

barnyardgrass [6] = test: Test B pre-/postemergence herbicide test; format: in vivo, Echinochloa crus-galli
Outline: as §3

ducksalad = test: Test B flooded paddy test; format: in vivo, Heteranthera limosa; conditions: 1000 g ai/ha, visual rating, scale 0 to 100 (0 no effect, 100 complete control), 13 to 15 days
Outline: (§4)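 Visual ratings, 0 (no effect) to 100 (complete control), made versus controls after 13–15 d greenhouse. Paddy plants treated at 2-leaf stage; postemergence plants at 1- to 4-leaf stage, 2–18 cm tall.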

rice [7] = test: Test B pre-/postemergence herbicide test; format: in vivo, Oryza sativa; conditions: preemergence
Outline: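 Evaluation is visual, comparing treated with control plants on a scale where 0 means no effect and 100 means full control. Treatments were preemergence, or postemergence on seedlings 2–18 cm tall, and held 13–15 days in the greenhouse.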

blackgrass = test: Test B postemergence herbicide test; format: in vivo, Alopecurus myosuroides; conditions: scale 0 (no effect) to 100 (complete control)
Outline: as §4

rice [8] = test: Test B flooded paddy test; format: in vivo, Oryza sativa; conditions: 1000 g ai/ha, visual rating, scale 0 to 100 (0 no effect, 100 complete control), 13 to 15 days
Outline: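 After treating 2-leaf paddy plants or 2–18 cm postemergence plants (1 to 4 leaves) with formulated chemical, researchers kept them in a greenhouse for 13–15 days. Effects were judged visually versus controls: 0 indicates none, 100 total control.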

[9] = test system: small flower umbrella sedge; test: Test B flooded paddy test; format: in vivo, Cyperus difformis; conditions: 1000 g ai/ha, visual rating, scale 0 to 100 (0 no effect, 100 complete control), 13 to 15 days
Outline: as §4

giant foxtail [10] = test: Test A pre-/postemergence herbicide test; format: in vivo, Setaria faberi
Outline: as §2

giant foxtail [11] = test: Test B pre-/postemergence herbicide test; format: in vivo, Setaria faberi
Outline: as §1

pigweed = test: Test B pre-/postemergence herbicide test; format: in vivo, Amaranthus retroflexus
Outline: as §1

barnyardgrass [12] = test: Test B flooded paddy test; format: in vivo, Echinochloa crus-galli; conditions: 1000 g ai/ha, visual rating, scale 0 to 100 (0 no effect, 100 complete control), 13 to 15 days
Outline: as §4

lambsquarters = test: Test B pre-/postemergence herbicide test; format: in vivo, Chenopodium album
Outline: as §1

cocklebur = test: Test B pre-/postemergence herbicide test; format: in vivo, Xanthium strumarium
Outline: as §3

wheat = test: Test B postemergence herbicide test; format: in vivo, Triticum aestivum; set-up: key to Wheat plant response rating: 0 = no effect, 100 = complete control; conditions: scale 0 (no effect) to 100 (complete control)
Outline: (§5)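 Formulated test chemicals went onto postemergence plants measuring 2 to 18 cm, at one to four leaves. For the paddy assay, species had reached two leaves. Scoring took place 13–15 days later by eye, relative to untreated plants, using 0 for no effect up to 100 for full control.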

wild oat = test: Test B postemergence herbicide test; format: in vivo, Avena fatua; conditions: scale 0 (no effect) to 100 (complete control)
Outline: as §5

redroot pigweed = test: Test A pre-/postemergence herbicide test; format: in vivo, Amaranthus retroflexus
Outline: as §2

morningglory [13] = test: Test A pre-/postemergence herbicide test; format: in vivo, Ipomoea spp.
Outline: as §2

Surinam grass = test: Test B pre-/postemergence herbicide test; format: in vivo, Urochloa decumbens
Outline: as §1

large crabgrass [14] = test: Test A pre-/postemergence herbicide test; format: in vivo, Digitaria sanguinalis
Outline: as §2

[15] = 500 g ai/ha, visual rating 0-100, 0 no effect, 100 complete control, preemergence
[16] = Postemergence, 500 g ai/ha, visual rating after 13 to 15 days, scale 0 (no effect) to 100 (complete control)
[17] = postemergence, 125 g ai/ha, visual rating, scale 0 (no effect) to 100 (complete control)
[18] = preemergence, 125 g ai/ha, 0 to 100 scale, 0 is no effect, 100 is complete control
[19] = Postemergence, 500 g ai/ha, 0 to 100 scale, 0 no effect, 100 complete control
[20] = Postemergence, 2000 g ai/ha, 0 to 100 scale, 0 no effect, 100 complete control
[21] = Preemergence, 500 g ai/ha, visual rating, 0 to 100 scale (0 no effect, 100 complete control)
[22] = Preemergence, 2000 g ai/ha, 0 to 100 scale, 0 no effect, 100 complete control
[23] = Postemergence, 500 g ai/ha, visual rating after 13 to 15 days
[24] = postemergence, 125 g ai/ha, visual rating

C=CCOC(=O)c1cccc(NC(=O)c2cc(C(C)(C)C)nn2CC)c1C [Compound 94]
Plant response rating, Crabgrass, Large (large crabgrass [1]; [15]): 20
Plant response rating, Crabgrass, Large (large crabgrass [1]; [16]): 10
Crabgrass, Large plant response rating (large crabgrass [1]; [17]): 10
Plant response rating, Crabgrass, Large (large crabgrass [1]; [18]): 10
Velvetleaf plant response rating (velvetleaf [2]; [19]): 20
Plant response rating, Velvetleaf (velvetleaf [2]; [20]): 25
Velvetleaf plant response rating (velvetleaf [2]; [21]): 5
Velvetleaf plant response rating (velvetleaf [2]; Preemergence, 2000 g ai/ha, visual rating, 0 to 100 scale (0 no effect, 100 complete control)): 25
Plant response rating, Corn (corn; [15]): 0
Plant response rating, Corn (corn; [16]): 20
Corn plant response rating (corn; [17]): 20
Plant response rating, Corn (corn; [18]): 0
Barnyardgrass plant response rating (barnyardgrass [3]; [19]): 20
Plant response rating, Barnyardgrass (barnyardgrass [3]; [20]): 35
Barnyardgrass plant response rating (barnyardgrass [3]; [21]): 20
Barnyardgrass plant response rating (barnyardgrass [3]; [22]): 65
Plant response rating, Morningglory (morningglory [4]; [15]): 0
Plant response rating, Morningglory (morningglory [4]; [16]): 10
Morningglory plant response rating (morningglory [4]; [17]): 10
Plant response rating, Morningglory (morningglory [4]; [18]): 0
Plant response rating, Velvetleaf (velvetleaf [5]; [15]): 0
Plant response rating, Velvetleaf (velvetleaf [5]; [16]): 20
Velvetleaf plant response rating (velvetleaf [5]; [17]): 10
Plant response rating, Velvetleaf (velvetleaf [5]; [18]): 0
Plant response rating, Barnyardgrass (barnyardgrass [6]; [15]): 20
Plant response rating, Barnyardgrass (barnyardgrass [6]; [16]): 10
Barnyardgrass plant response rating (barnyardgrass [6]; [17]): 10
Plant response rating, Barnyardgrass (barnyardgrass [6]; [18]): 10
Ducksalad plant response rating (ducksalad): 30
Plant response rating, Rice (rice [7]; 500 g ai/ha, visual rating 0-100, 0 no effect, 100 complete control): 0
Plant response rating, Rice (rice [7]; 125 g ai/ha, 0 to 100 scale, 0 is no effect, 100 is complete control): 0
Plant response rating, Blackgrass (blackgrass; [23]): 10
Blackgrass plant response rating (blackgrass; [24]): 0
Rice plant response rating (rice [8]): 10
Sedge, Umbrella plant response rating [9]: 50
Foxtail, Giant plant response rating (giant foxtail [10]; [19]): 10
Plant response rating, Foxtail, Giant (giant foxtail [10]; [20]): 15
Foxtail, Giant plant response rating (giant foxtail [10]; [21]): 45
Foxtail, Giant plant response rating (giant foxtail [10]; [22]): 65
Plant response rating, Foxtail, Giant (giant foxtail [11]; [15]): 30
Plant response rating, Foxtail, Giant (giant foxtail [11]; [16]): 10
Foxtail, Giant plant response rating (giant foxtail [11]; [17]): 10
Plant response rating, Foxtail, Giant (giant foxtail [11]; [18]): 10
Plant response rating, Pigweed (pigweed; [15]): 20
Plant response rating, Pigweed (pigweed; [16]): 30
Pigweed plant response rating (pigweed; [17]): 10
Plant response rating, Pigweed (pigweed; [18]): 0
Barnyardgrass plant response rating (barnyardgrass [12]): 20
Plant response rating, Lambsquarters (lambsquarters; [15]): 0
Plant response rating, Lambsquarters (lambsquarters; [16]): 80
Lambsquarters plant response rating (lambsquarters; [17]): 50
Plant response rating, Lambsquarters (lambsquarters; [18]): 0
Plant response rating, Cocklebur (cocklebur; [15]): 0
Plant response rating, Cocklebur (cocklebur; [16]): 50
Cocklebur plant response rating (cocklebur; [17]): 20
Plant response rating, Cocklebur (cocklebur; [18]): 0
Plant response rating, Wheat (wheat; [23]): 10
Wheat plant response rating (wheat; [24]): 0
Plant response rating, Oat, Wild (wild oat; [23]): 10
Oat, Wild plant response rating (wild oat; [24]): 10
Pigweed plant response rating (redroot pigweed; [19]): 25
Plant response rating, Pigweed (redroot pigweed; [20]): 30
Pigweed plant response rating (redroot pigweed; [21]): 35
Pigweed plant response rating (redroot pigweed; [22]): 85
Morningglory plant response rating (morningglory [13]; [19]): 20
Plant response rating, Morningglory (morningglory [13]; [20]): 20
Morningglory plant response rating (morningglory [13]; [21]): 10
Morningglory plant response rating (morningglory [13]; [22]): 10
Plant response rating, Surinam Grass (Surinam grass; [15]): 0
Plant response rating, Surinam Grass (Surinam grass; [16]): 10
Surinam Grass plant response rating (Surinam grass; [17]): 10
Plant response rating, Surinam Grass (Surinam grass; [18]): 0
Crabgrass, Large plant response rating (large crabgrass [14]; [19]): 10
Plant response rating, Crabgrass, Large (large crabgrass [14]; [20]): 30
Crabgrass, Large plant response rating (large crabgrass [14]; [21]): 35
Crabgrass, Large plant response rating (large crabgrass [14]; [22]): 60
